Measurements published in patent US20100267638A1, “EXOSITE-DIRECTED THROMBIN INHIBITORS” (CLEVELAND STATE UNIVERSITY, priority 2003, published 2010).
Read-outs that look alike come from different tables or passages of the source. No end group written: not given here.

Key:
prothrombin = molecular target: T1, prothrombin (Homo sapiens, UniProt P00734); test: KD of peptide for prothrombin, from kinetics of prothrombinase inhibition; format: biochemical
T1 construct: purchased Haematologic Technologies Inc. (Essex Junction, Vt.)
Source text: The mechanism of inhibition of prothrombinase by the hirudin-like peptides HC3 and HC4 was addressed by investigating the effect of the peptides on the kinetic parameters of the enzymatic complex (Km and Vmax). For the sake of simplicity only the results obtained with HC4 are shown (FIG. 2C). In FIG. 2C, the data are plotted as V0 (initial velocity, in arbitrary units) as a function of increasing prothrombin concentration in the presence of increasing concentrations of HC4. The lines drawn represent the best fit through the points with an R^2 of 0.99. The concentrations of HC4 used in the experiments are as follows: control no peptide (filled squares), 0.5 μM peptide (filled circles), 1 μM peptide (filled inverted triangles), 1.5 μM peptide (filled diamonds), and 2 μM peptide (filled triangles). […]
In FIG. 3B, the data are plotted as V0 (initial velocity, in arbitrary units) as a function of increasing prothrombin concentration in the presence of increasing concentrations of peptide DYDYQ. […] The kinetic constants calculated from the data presented in this graph were used to calculate the kcat reported in FIG. 7 assuming a final concentration of 4 nM prothrombinase. […]

thrombin = thrombin (Homo sapiens, UniProt P00734); test: Activation of plasma factor V by thrombin preincubated with peptide (SDS-PAGE, immunoblotting); format: biochemical; set-up: Factor Xa cleaves prothrombin to form thrombin; purchased Haematologic Technologies Inc. (Essex Junction, Vt.); details: thrombin 1 nM preincubated with 100 μM peptide, factor V 250 nM
Procedure: Gel Electrophoresis and western blotting. Sodium dodecyl sulfate polyacrylamide gel electrophoresis (SDS-PAGE) analyses were performed using 4-12% gradient gels according to the method of Laemmli. In several experiments, proteins were transferred to polyvinylidene difluoride (PVDF) membranes according to the method described by Towbin et al. After transfer to nitrocellulose, factor V heavy and light chain(s) were detected using the appropriate monoclonal and polyclonal antibodies. Immunoreactive fragments were visualized with chemiluminescence.
Factor V (250 nM) was incubated with thrombin (1 nM). And FIG. 4B illustrates thrombin (1 nM) was preincubated with 100 μM peptide DYDYQ and the mixture was added to factor V (250 nM). […] Fragments were identified following staining with monoclonal antibody αHFV#17 that recognizes an epitope between amino acid residues 307-506 of factor V and chemiluminescence as described. Lane 1 in both panels depicts aliquots of the mixture withdrawn from the reaction before the addition of thrombin or thrombin/peptide mixture while lanes 2-7 show aliquots of the reaction mixture withdrawn at 30 sec, 1 min, 3 min, 5 min, 10 min, 15 min following the addition of thrombin alone or of thrombin/peptide mixture. The time of incubation is shown at the bottom of the figure. Position of the molecular weight markers is indicated at left.

Kd (prothrombin; from Ki of prothrombinase inhibition, read-out: KD for prothrombin): 850 nM
Kd (prothrombin; kinetic model FIG. 7, read-out: KD of inhibitor interaction with prothrombin): ~850 nM
inhibition of activation of factor V by thrombin (cleavage at Arg709) (thrombin): inhibited
inhibition of activation of factor V by thrombin (cleavage at Arg709) (thrombin; listed as pentapeptide): potent inhibitor
Substance: DYDYQ [DYDYQ, Asp-Tyr-Asp-Tyr-Gln]
